Laboratory results published in patent US12286418B2, “Compounds and methods for treating or preventing bacterial infections” (priority 2019, dated 2025).
Several values for one entry are separate records, joined by “and”; a condition that tells them apart may be missing. Identical values can stand only once. Entries after “also recorded” stand apart in the source; their conditions may differ. Like-named read-outs stand apart in the source and are kept apart here. Each block holds one compound with its values, some of them ahead of it.

Legend:
[1] = target: OXA-48 (Klebsiella pneumoniae, UniProt Q6XEC0); experiment: OXA-48 inhibition assay using nitrocefin as reporter; type: biochemical; set-up: His-tag (N, cleaved yes); made in house; host or cells: E. coli BL21(DE3), pET28a; conditions: for potency/activity against OXA-48 in words: purified OXA-48, compared with CDD-97 where a derivative
Protocol: Nitrocefin, a chromogenic β-lactam substrate, was used as a reporter in all inhibition assays with the various OXA enzymes and various compounds. Nitrocefin is not stable in aqueous solution long-term. For these assays, nitrocefin stocks were prepared in DMSO, stored at −20° C. and used within 2 weeks of dissolving. To avoid freeze-thawing, fresh stocks were always used. The Km of nitrocefin was determined prior to inhibition assays by performing steady state kinetics. Assays were performed using a DU800 spectrophotometer at room temperature in 50 mM HEPES pH 7.5, 15 mM NaHCO3, and 0.02% tween 20 buffer. Hydrolyzed nitrocefin was detected at 482 nm. For a single experiment, a series of at least 5 nitrocefin concentrations were tested against the given enzyme in duplicate and the initial velocities were measured and fit to the Michaelis-Menten equation. Experiments were repeated twice, and error reported is the standard error of the mean.
Compounds were tested for inhibition of a given OXA enzyme from hydrolyzing nitrocefin using a Tecan plate reader. […] A control with no compound was included in each run. For each compound concentration, the velocity of nitrocefin hydrolysis was determined at 482 nm and fit to the Morrison equation. […] The average Ki of separate experiments, each of which consisted of duplicate runs, is reported and error was quantified as the standard deviation.
The activity of these derivatives was assessed using inhibition assays with purified OXA-48. Compounds were tested for the ability to inhibit OXA-48 from hydrolyzing nitrocefin, a chromogenic β-lactam substrate routinely used in β-lactamase inhibition assays. Nitrocefin contains a conjugated ring system that is readily hydrolyzed and produces a visible color shift from yellow to red upon hydrolysis (O'Callaghan, et al., 1972, Antimicrob. Agents Chemother. 1:283-288). The rate of nitrocefin hydrolysis in the presence of a constant amount of OXA-48 and increasing concentrations of a given compound of interest was monitored at 482 nm. These rates were plotted against compound concentration to determine the inhibition constant (Ki) against OXA-48. […] SPR was performed using 6×-His-OXA-48 enzyme that was amine-coupled on a Ni-NTA Chip. Meropenem, which covalently binds and inhibits OXA-48, was used as a positive control.

[2] = system: E. coli MG1655OXA-48; experiment: Bacterial susceptibility (MIC, broth microdilution) of E. coli expressing OXA-48; type: cell-based; conditions: for MIC: Escherichia coli
Protocol: Bacterial susceptibility was specifically tested using minimum inhibitory concentration assays. Susceptibility assays were performed with E. coli strains using broth in a microplate set up. Two-fold dilutions of antibiotic and/or inhibitor were used. For susceptibility tests, bacterial strains were transformed with plasmids containing OXA-48 with its endogenous signal sequence for periplasmic migration (cloned into pTP123 vector) (Majiduddin & Palzkill, 2003, Antimicrob. Agents Chemother. 47:1062-1067). pTP123 was cut with XbaI and SacI and the linearized fragment was assembled using Gibson assembly (New England Biolabs, Ipswich, MA) its signal sequence cloned in by using Gibson assembly. Bacteria were grown in Mueller-Hinton broth with 12.5 μg/mL chloramphenicol (plasmid marker) overnight. An overnight culture was diluted 1:10^4 into the final well solutions (100 uL total) and incubated for 16-18 hours. After incubation, microplates were read using a Tecan plate reader at absorbance 600. Growth was objectively defined as yielding an absorbance ≥2 times the absorbance of the negative control (media and no culture). Experiments were repeated with new bacterial inoculums each time.
Effective β-lactamase inhibitors synergize with β-lactam antibiotics and ultimately lower the minimum inhibitory concentration (MIC) of antibiotic needed to kill the bacteria. MIC studies were performed with ampicillin (AMP), a β-lactam antibiotic readily hydrolyzed by OXA-48, against E. coli strain MG1655 expressing OXA-48 (MG1655OXA-48). The OXA-48 plasmid construct contained the endogenous signal sequence of OXA-48 for secretion to the periplasm, which was expressed under a trc-promoter, allowing leaky expression in the absence of IPTG inducer. All MICs were performed by broth microdilution with 2-fold dilutions of antibiotic and/or inhibitor (FIG. 6A). The ampicillin (AMP) and imipenem (IMP) MICs were separately determined for a range of CDD-97 and avibactam concentrations. […] In the absence of bacteria, the media (Mueller Hinton) gives an absorbance reading of 0.04 so absorbance readings greater than or equal to two-fold the control were considered bacterial growth. […] CDD-97 was tested for its synergistic ability by determining AMP MICs with a range of CDD-97 concentrations (up to 256 μg/ml).
Impermeability of the outer membrane to small molecules is a major challenge for the development of therapeutics for Gram-negative bacterial infections. β-lactamases, including OXA-48, reside in the periplasmic space and so inhibitors must traverse the outer membrane to be effective. To determine whether low permeability caused the poor in vivo activity of CDD-97, an accumulation assay (Richter, et al., 2017, Nature 545:299-304) was performed to quantify the amount of CDD-97 present in E. coli cells after incubation. In the assay, tetracycline was used as a positive control while fusidic acid and clindamycin were used as negative controls (Richter, et al., 2017, Nature 545:299-304). Controls and CDD-97 were separately incubated with wildtype E. coli (MG1655) cells and then these cells were centrifuged through silicone oil to separate free, unaccumulated compound from the cell pellet. Cell lysates were collected by freeze-thawing and analyzed by mass spectrometry to quantify the amount of accumulated compound. Compared to tetracycline, CDD-97 was present in cells at 20-fold lower levels (FIG. 6B). […] The finding that CDD-97 accumulates inefficiently across the outer membrane was also examined by adding sub-lethal concentrations of colistin to the ampicillin/CDD-97 MIC assays. Colistin is known to disrupt the outer membrane and enhance permeability in E. coli. If the outer membrane is a barrier for CDD-97, it was predicted that the addition of sub-lethal concentrations of colistin would enhance the activity of CDD-97 against E. coli. […]

[3] = purified OXA-48, nitrocefin hydrolysis, Morrison fit

Sequence of OXA-48 (Q6XEC0 23-265, looked up): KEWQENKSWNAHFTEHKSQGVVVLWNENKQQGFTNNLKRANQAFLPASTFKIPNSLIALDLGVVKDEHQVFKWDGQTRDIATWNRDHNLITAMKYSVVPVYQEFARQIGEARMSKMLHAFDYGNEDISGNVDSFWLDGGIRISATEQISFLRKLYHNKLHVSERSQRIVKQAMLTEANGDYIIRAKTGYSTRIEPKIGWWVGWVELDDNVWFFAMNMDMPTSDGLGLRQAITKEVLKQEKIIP

Ki [1, 3]: 18.8 ± 2.5 µM
Compound: CCOc1ccccc1OCCOc1ncnc(N2CCC(C(=O)O)CC2)n1

Ki [1, 3]: 29 ± 4 µM
Compound: CCOc1ccccc1N1CCN(c2ncnc(N3CCC(N)(C(=O)O)CC3)n2)CC1

Compound: 1-(4-(2-(2-ethoxyphenoxy)ethoxy)-1,3,5-triazin-2-yl)piperidine-4-carboxylic acid [CDD-900]
Ki [1, 3]: 38.1 µM

Compound: CC1(C)S[C@@H]2[C@H](NC(=O)[C@H](N)c3ccccc3)C(=O)N2[C@H]1C(=O)O [AMP, ampicillin, reference compound]
MIC ([2]; MG1655OXA48, read-out: AMP MIC, ampicillin alone, no inhibitor): 512 µg/mL | MIC ([2]; MG1655OXA48, read-out: AMP MICs, (−) CDD-97, colistin 0 μg/mL): 1020 µg/mL | MIC ([2]; MG1655OXA48, read-out: AMP MICs, (−) CDD-97, colistin 0.0625 μg/mL): 1020 µg/mL | MIC ([2]; MG1655OXA48, read-out: AMP MICs, (−) CDD-97, colistin 0.125 μg/mL): 1020 µg/mL | MIC ([2]; MG1655OXA48, read-out: AMP MICs, (−) CDD-97, colistin 0.25 μg/mL): 512 µg/mL | MIC ([2]; MG1655OXA48, read-out: AMP MICs, (−) CDD-97, colistin 0.5 μg/mL): 256 µg/mL | MIC ([2]; MG1655OXA48, read-out: AMP MICs, (−) CDD-97, colistin 1 μg/mL): 256 µg/mL

Compound: CCOc1ccccc1N1CCN(c2ncnc(N3CCC(C(=O)OC)CC3)n2)CC1 [CDD-95, methyl 1-(4-(4-(2-ethoxyphenyl)piperazin-1-yl)-1,3,5-triazin-2-yl)piperidine-4-carboxylate]
potency/activity against OXA-48 in words [1]: low of activity; also recorded: significant loss of inhibitory activity | Ki [1, 3]: ≥ 50 µM

Compound: CCOc1ccccc1N1CCN(c2ncnc(N3CC(F)(C(=O)O)C3)n2)CC1 [CDD-96, 1-(4-(4-(2-ethoxyphenyl)piperazin-1-yl)-1,3,5-triazin-2-yl)-3-fluoroazetidine-3-carboxylic acid]
potency/activity against OXA-48 in words [1]: potency was low

Compound: CCOc1ccccc1N1CCN(c2ncnc(N3CC(F)(C(=O)NC)C3)n2)CC1 [CDD-147, 1-(4-(4-(2-ethoxyphenyl)piperazin-1-yl)-1,3,5-triazin-2-yl)-3-fluoro-N-methylazetidine-3-carboxamide]
potency/activity against OXA-48 in words [1]: potency was low | Ki [1, 3]: > 50 µM

Ki [1, 3]: > 50 µM
Compound: CCOc1ccccc1N1CCN(c2nc(N3CCC(C(=O)O)CC3)nc(N3CC(F)(C(=O)NC)C3)n2)CC1 [CDD-163, 1-(4-(4-(2-ethoxyphenyl)piperazin-1 yl)-6-(3-fluoro-3-(methylcarbamoyl)azetidin-1-yl)-1,3,5-triazin-2-yl)piperidine-4-carboxylic acid]

Ki [1, 3]: 1 µM and 0.83 µM
Compound: O=C(O)C1CCN(c2ncnc(N3CCN(c4ccccc4OCC(F)(F)F)CC3)n2)CC1 [CDD-178, 1-(4-(4-(2-(2,2,2-trifluoroethoxy)phenyl)piperazin-1-yl)-1,3,5-triazin-2-yl)piperidine-4-carboxylic acid]

Ki [1, 3]: 1.7 µM
Compound: O=C(O)C1CCN(c2ncnc(N3CCN(c4ccccc4C(F)(F)F)CC3)n2)CC1 [CDD-180, 1-(4-(4-(2-(trifluoromethyl)phenyl)piperazin-1-yl)-1,3,5-triazin-2-yl)piperidine-4-carboxylic acid]

Ki [1, 3]: 3.23 ± 0.39 µM
Compound: CS(=O)(=O)c1ccccc1N1CCN(c2ncnc(N3CCC(C(=O)O)CC3)n2)CC1 [CDD-181, 1-(4-(4-(2-(methylsulfonyl)phenyl)piperazin-1-yl)-1,3,5-triazin-2-yl)piperidine-4-carboxylic acid]

Ki [1, 3]: > 50 µM
Compound: CN1CCN(c2ncnc(N3CCC(C(=O)O)CC3)n2)CC1 [CDD-187, 1-(4-(4-methylpiperazin-1-yl)-1,3,5-triazin-2-yl)piperidine-4-carboxylic acid]

Ki [1, 3]: 7.51 ± 0.23 µM
Compound: CCOc1ccccc1CCNc1ncnc(N2CCC(C(=O)O)CC2)n1 [CDD-375, 1-(4-((2-ethoxyphenethyl)amino)-1,3,5-triazin-2-yl)piperidine-4-carboxylic acid]

Compound: CCOc1ccccc1N1CCN(c2ncnc(N3CCC(C(N)=O)CC3)n2)CC1 [CDD-553, 1-(4-(4-(2-ethoxyphenyl)piperazin-1-yl)-1,3,5-triazin-2-yl)piperidine-4-carboxamide]
potency/activity against OXA-48 in words [1]: significant loss of inhibitory activity | Ki for OXA-48 inhibition [1, 3]: No binding

Compound: CCOc1ccccc1N1CCN(c2ncnc(N3CCNC(C(=O)O)CC3)n2)CC1 (stereo not shown) [CDD-559]
Ki [1, 3]: 29 µM | fold reduction in potency (OXA-48 Ki) compared to CDD-97 ([1]; relative to CDD-97): approximately 50 fold

Compound: C[C@@H](O)[C@H]1C(=O)N2C(C(=O)O)=C(SCCN=CN)C[C@H]12 [IMP, imipenem, reference compound]
MIC ([2]; MG1655OXA48, read-out: IMP MIC, imipenem alone, no inhibitor): 0.625 µg/mL

Compound: NC(=O)[C@@H]1CC[C@@H]2CN1C(=O)N2OS(=O)(=O)O [avibactam, reference compound]
synergy with β-lactam antibiotics (effect on AMP/IMP MIC) in words ([2]; E. coli expressing OXA-48, CDD-97 up to 256 μg/mL, avibactam up to 4 μg/mL): dose-dependent decrease in both the AMP and IMP MICs | MIC ([2]; MG1655OXA48, read-out: AMP MIC, with 0.125 μg/mL avibactam): 256 µg/mL | MIC ([2]; MG1655OXA48, read-out: AMP MIC, with 1 μg/mL avibactam): 32 µg/mL | MIC ([2]; MG1655OXA48, read-out: AMP MIC, with 2 μg/mL avibactam): 16 µg/mL | MIC ([2]; MG1655OXA48, read-out: AMP MIC, with 4 μg/mL avibactam): 4 µg/mL | MIC ([2]; MG1655OXA48, read-out: AMP MIC, with .25 μg/mL avibactam): 128 µg/mL | MIC ([2]; MG1655OXA48, read-out: AMP MIC, with .5 μg/mL avibactam): 64 µg/mL | MIC ([2]; MG1655OXA48, read-out: IMP MIC, with 0.125 μg/mL avibactam): 0.312 µg/mL | MIC ([2]; MG1655OXA48, read-out: IMP MIC, with 1 μg/mL avibactam): 0.156 µg/mL | MIC ([2]; MG1655OXA48, read-out: IMP MIC, with 2 μg/mL avibactam): 0.156 µg/mL | MIC ([2]; MG1655OXA48, read-out: IMP MIC, with 4 μg/mL avibactam): 0.0781 µg/mL | MIC ([2]; MG1655OXA48, read-out: IMP MIC, with .25 μg/mL avibactam): 0.312 µg/mL | MIC ([2]; MG1655OXA48, read-out: IMP MIC, with .5 μg/mL avibactam): 0.156 µg/mL

Compound: colistin [reference compound]
colistin concentration at which bacteria were completely killed off regardless of the presence of AMP ([2]; colistin, with or without AMP): At ≥2 μg/mL colistin, bacteria were completely
